The conditions of data set [1]: rat, in vivo, po, 10 mg/kg. On the procedure:
In Vivo Pharmacokinetic Tests Male Sprague-Dawley Rats in Fasted Condition
Comparative In Vivo Pharmacokinetic Tests in Male Sprague-Dawley Rats in Fasted Condition
Both test substances were administered via gastric tube in a dosing volume of 5 ml/kg. The vehicle of the test items was sterile 0.9% NaCl solution and the suspension was kept homogenous by continuous stirring during treatment in order to minimize the error resulting from the sedimentation.
Male Wistar rats (purchased from Laboratory Animal Center, University of Szeged) were maintained on a standard pellet rodent diet (Bioplan Ltd, Isaszeg, Hungary) under temperature and light-controlled conditions with tap water available ad libitum. The acclimatization period was at least 4 days. […] All animals were fasting for 16 hours before oral treatment. […] Water was available immediately after treatment for all animals. […] Serum samples were prepared by centrifugation (7000 rpm, 10 min, 4° C.) of the clotted blood within 60 minutes and were stored at −20° C. till analysis.
An aliquot of 200 μl serum was combined with 20 μl of internal standard working solution and 1.2 ml methanol for protein precipitation. The mixture was vortexed for 1 min and centrifuged at 12000 rpm for 10 min at 4° C. The supernatants were evaporated to dryness under a stream of nitrogen at 40° C. and reconstituted with 200 μl of water-methanol (50:50 v/v) and 20 μl was injected into the HPLC system.
Statistical analysis and graph drawing were carried out be GraphPad Prism 4.0 (GraphPad Software, San Diego, USA).

Data set [2] can be described thus: Comparative dissolution test in distillate water. The format is physicochemical. The note with it: 5 mg in 10 mL distillate water. The method, then:
The suspension was stirred for 1, 5, 10, 15, 20, and 30 minutes and then it was filtered by 0.2 μm disposable syringe filter.

For data set [3] the following is noted: cited from earlier work.
The conditions of data set [4]: monotherapy, 108 of 3260 patients; cited from earlier work.
For data set [5] the following is noted: cited from earlier work. This is another data set of the same source.
The conditions of data set [6]: rats; cited from earlier work.
Setting [7] is: intravenous dose of 14C-labeled Candesartan.

Some results are limits rather than exact numbers.

For the molecule `CCOc1nc2cccc(C(=O)OC(C)OC(=O)OC3CCCCC3)c2n1Cc1ccc(-c2ccccc2-c2nnn[nH]2)cc1` (racemic) [Candesartan Cilexetil, (±)-1-Hydroxyethyl 2-ethoxy-1-[p-(o-1H-tetrazol-5-ylphenyl)benzyl]-7-benzimidazolecarboxylate, cyclohexyl carbonate (ester)], in data set [1], the AUC15-120 min was determined as 120.8 µg·min/mL, the AUC15-360 min came to 420.2 µg·min/mL, the “maximal serum Candesartan concentration (Cmax)” value was 1612 ± 248 ng/mL and the tmax was 2 h. Besides, in data set [2], the “Candesartan Cilexetil content in distilled water by UV-VIS” value is reported as “cannot be detected”. Moreover, in data set [3] (methanol), the solubility in methanol entry is listed as “sparingly soluble”. For the same molecule, the solubility in water result in data set [3] (water) is “practically insoluble”. In data set [4], the “rate of withdrawals due to adverse events” value is given as 3.3%.

On to `CCOc1nc2cccc(C(=O)O)c2n1Cc1ccc(-c2ccccc2-c2nnn[nH]2)cc1` [Candesartan], for which, in data set [5] (administered orally), the “dose excreted unchanged in urine” value is “about 26%”. Moreover, the “effect of food with a high fat content on bioavailability” value in data set [5] (after Candesartan Cilexetil administration) is on record as “does not affect”. Moreover, the “absolute bioavailability of Candesartan” value in data set [5] (following administration of Candesartan Cilexetil) is 15%. For the same molecule, in data set [5] (in vivo), the “bound to plasma proteins” value is recorded as > 99%, the elimination half-life result is listed as “approximately 9 hours”, the “penetration of red blood cells” value was “does not penetrate red blood cells” and the renal clearance was 0.19 mL/min/kg. In addition, in data set [5] (in vivo), the total plasma clearance is listed as 0.37 mL/min/kg and the volume of distribution was 0.13 L/kg. Moreover, in data set [5] (setting [7]), the “radioactivity recovered in feces” value is reported as “approximately 36%” and the “radioactivity recovered in urine” value was “approximately 59%”. In data set [5] (repeated once-daily dosing), the accumulation in serum result was “do not accumulate”. Besides, in data set [6], the “crossing of the blood-brain barrier” value is reported as “crosses the blood-brain barrier poorly, if at all”; the “passage across the placental barrier” value was “passes across the placental barrier and is distributed in the fetus”.

The record behind these values is patent US20120141561A1, “NANOPARTICULATE CANDESARTAN CILEXITIL COMPOSITIONS, PROCESS FOR THE PREPARATION THEREOF AND PHARMACEUTICAL COMPOSITIONS CONTAINING THEM” (priority 2009, published 2012).
